# Experimental data from patent publication US8778966B2, “Quinolinone derivatives as PARP and tank inhibitors” (Janssen Pharmaceutica, NV, priority 2007, dated 2014).
# Columns and labels:
# [1] = target: T1, TANK-2 enzyme (Homo sapiens, UniProt Q9H2K2); assay: In vitro Scintillation Proximity Assay (SPA) for TANK-2 inhibitory activity; assay type: biochemical; conditions: read-out: in vitro SPA assay TANK-2 pIC50 (converted)
# T1 construct: made in house
# T1 sequence (Q9H2K2 1-1166): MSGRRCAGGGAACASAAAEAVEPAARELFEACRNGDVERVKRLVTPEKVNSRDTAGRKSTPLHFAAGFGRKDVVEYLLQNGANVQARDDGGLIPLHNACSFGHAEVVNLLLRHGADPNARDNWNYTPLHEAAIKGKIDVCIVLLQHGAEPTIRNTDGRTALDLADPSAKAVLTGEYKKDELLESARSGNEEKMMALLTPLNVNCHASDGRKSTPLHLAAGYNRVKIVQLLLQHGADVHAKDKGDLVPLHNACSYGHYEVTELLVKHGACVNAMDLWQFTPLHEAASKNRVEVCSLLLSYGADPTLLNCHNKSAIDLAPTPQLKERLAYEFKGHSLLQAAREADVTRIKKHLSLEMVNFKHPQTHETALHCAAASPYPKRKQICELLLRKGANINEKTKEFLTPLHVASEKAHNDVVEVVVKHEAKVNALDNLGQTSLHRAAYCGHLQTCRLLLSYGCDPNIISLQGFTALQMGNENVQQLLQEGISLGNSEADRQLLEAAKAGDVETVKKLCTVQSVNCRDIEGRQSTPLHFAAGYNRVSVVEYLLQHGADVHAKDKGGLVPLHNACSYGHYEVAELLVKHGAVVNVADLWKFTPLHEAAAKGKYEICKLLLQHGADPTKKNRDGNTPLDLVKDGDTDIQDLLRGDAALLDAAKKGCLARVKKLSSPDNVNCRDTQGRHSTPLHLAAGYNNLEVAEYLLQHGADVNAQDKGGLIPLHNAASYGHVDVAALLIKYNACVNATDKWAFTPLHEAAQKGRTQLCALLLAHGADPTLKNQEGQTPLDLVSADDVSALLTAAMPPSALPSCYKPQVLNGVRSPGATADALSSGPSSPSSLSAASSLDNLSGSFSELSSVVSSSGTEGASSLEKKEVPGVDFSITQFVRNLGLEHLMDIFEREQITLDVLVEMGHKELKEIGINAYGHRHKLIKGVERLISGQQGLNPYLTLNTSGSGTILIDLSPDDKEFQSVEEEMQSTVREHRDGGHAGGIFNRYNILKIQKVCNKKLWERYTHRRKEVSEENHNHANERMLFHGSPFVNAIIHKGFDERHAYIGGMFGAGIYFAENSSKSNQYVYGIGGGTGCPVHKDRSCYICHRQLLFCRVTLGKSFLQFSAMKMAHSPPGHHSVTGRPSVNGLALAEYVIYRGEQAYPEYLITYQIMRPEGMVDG
# In short: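 Results are pIC50 values, with IC50 interpolated linearly around 50% of blank-subtracted control cpm. They come from a scintillation proximity read of TANK-2 (8 μg/ml) self-modification with [3H]-NAD+/NAD, incubated 120 min at room temperature in pH 7.4 Tris buffer containing MgCl2 and DTT. Compounds were first screened at 10^−5 M.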
# [2] = test system: PC3 cells; assay: EB1 Comet (microtubule disruption) assay; assay type: cell-based, human; conditions: 1 hour treatment; for minimal effective concentration: Homo sapiens, PC-3, 1 h, read-out: EB1 pLAC (converted)
# Protocol: The Eb1 Comet assay relies on the detection of the Eb1 protein at the plus end of polymerizing microtubules (Mimori-Kiyosue, 2000) using indirect immunofluorescence. Disruption of microtubule dynamics through de-polymerization or stabilization results in a de-localization of Eb1 from the growing microtubule ends and this is visualized by the disappearance of Eb1 containing cytoplasmic foci.
# Briefly, human prostate cancer PC3 cells obtained from the American Type Culture Collection were grown in 96-well plates (Greiner, cat. no. 655090) in HAM's F12 medium as recommended by the provider (ATCC). The cells were treated for 1 hour at 37° C. with compounds dissolved in DMSO (0.6% final DMSO concentration). The culture medium was then removed by aspiration and the cells were fixed by adding cold methanol (−20 C). After a 15 min. incubation at −20 C, the cells were washed twice with DPBS (Gibco) containing 0.5% Triton X-100. Mouse Eb1 antibody (BD Transduction Laboratories, cat. no. 610534) was added to the cells (1/250 dilution in DPBS containing 1% BSA) and incubated overnight at room temperature. The antibody was subsequently removed and the cells washed twice with DPBS, 0.5% Triton X-100. Secondary goat anti-mouse antibody conjugated to Alexa 488 fluorescent dye (Molecular Probes) was added at a 1/500 dilution in DPBS, 1% BSA and incubated for 1 hour at 37 C. The cells were washed twice with DPBS, 0.5% Triton X-100 and then DPBS containing 0.5% Triton X-100 and 1/5000 Hoechst 33342 (Molecular Probes) was added. Microscopy based Eb1 foci visualization was carried out using an IN Cell Analyser 1000 (Amersham Biosciences) using a 20× objective. Compound dependent microtubule disruption was visually determined by the disappearance in Eb1 foci. The lowest active concentration (LAC) was determined as the concentration where Eb1 foci were absent in at least 50% of the treated cells.
IC50 [1] [nM],Compound,minimal effective concentration [2] [µM],EB1 pLAC [2]
79.4,C#Cc1cccc(CC(C)(C#N)c2ccc3cc(CC)c(=O)[nH]c3c2)c1 (racemic) [Compound 168],0.1,
200,"CCc1cc2ccc(C(C)(C#N)CC3COc4ccccc4O3)cc2[nH]c1=O (single isomer, unassigned) [Compound 48]",1,
79.4,CCc1cc2ccc(C(C)(C#N)Cc3cccc(-c4nc(C)no4)c3)cc2[nH]c1=O (centres unmarked) [Compound 11],1,
100,CCc1cc2ccc(C(C)(C#N)Cc3cccc(C(=O)OC)c3)cc2[nH]c1=O (centres unmarked) [Compound 12],0.0316,
63.1,CCc1cc2ccc(C(C)(C#N)Cc3ccccc3Br)cc2[nH]c1=O (centres unmarked) [Compound 104],0.316,
50.1,CCc1cc2ccc(C(C)(C#N)Cc3ccccc3F)cc2[nH]c1=O (centres unmarked) [Compound 106],0.316,
31.6,CCc1cc2ccc(C(C)(C#N)Cc3cccc(C)c3)cc2[nH]c1=O (centres unmarked) [Compound 107],1,
79.4,CCc1cc2ccc(C(C)(C#N)Cc3cccc(C(F)(F)F)c3)cc2[nH]c1=O (centres unmarked) [Compound 109],3.16,
20,CCc1cc2ccc(C(C)(C#N)Cc3cccc(OC)c3)cc2[nH]c1=O (centres unmarked) [Compound 113],> 10,
501,CCc1cc2ccc(C(C)(C#N)Cc3ccc(OC(F)(F)F)cc3)cc2[nH]c1=O (centres unmarked) [Compound 114],1,
79.4,CCc1cc2ccc(C(C)(C#N)Cc3c(F)c(F)c(F)c(F)c3F)cc2[nH]c1=O (centres unmarked) [Compound 116],0.316,
100,CCc1cc2ccc(C(C)(C#N)Cc3ccc4c(c3)OCCO4)cc2[nH]c1=O (centres unmarked) [Compound 124],1,
100,CCc1cc2ccc(C(C)(C#N)Cc3cc(F)cc(Cl)c3)cc2[nH]c1=O (centres unmarked) [Compound 126],0.316,
158,CCc1cc2ccc(C(C)(C#N)Cc3cc(F)cc(F)c3)cc2[nH]c1=O (centres unmarked) [Compound 128],,7.5
126,CCc1cc2ccc(C(C)(C#N)Cc3cccc(S(C)(=O)=O)c3)cc2[nH]c1=O (centres unmarked) [Compound 129],1,
79.4,CCc1cc2ccc(C(C)(C#N)Cc3cccc(Cl)c3F)cc2[nH]c1=O (centres unmarked) [Compound 130],0.1,
126,CCc1cc2ccc(C(C)(C#N)Cc3cccc(C(F)(F)F)c3F)cc2[nH]c1=O (centres unmarked) [Compound 134],1,
63.1,CCc1cc2ccc(C(C)(C#N)Cc3c(F)cccc3F)cc2[nH]c1=O (centres unmarked) [Compound 138],1,
79.4,CCc1cc2ccc(C(C)(C#N)Cc3ccc(F)cc3Br)cc2[nH]c1=O (centres unmarked) [Compound 139],0.316,
126,CCc1cc2ccc(C(C)(C#N)Cc3cccc(Cl)c3)cc2[nH]c1=O (centres unmarked) [Compound 140],0.1,
126,CCc1cc2ccc(C(C)(C#N)Cc3cc(Cl)cc(Cl)c3)cc2[nH]c1=O (centres unmarked) [Compound 141],0.1,
50.1,CCc1cc2ccc(C(C)(C#N)CCOc3ccccc3)cc2[nH]c1=O (centres unmarked) [Compound 145],1,
79.4,CCc1cc2ccc(C(C)(C#N)CCOc3ccc(OC)cc3)cc2[nH]c1=O (centres unmarked) [Compound 147],1,

# Continued, compound first:
Compound,IC50 [1] [nM],minimal effective concentration [2] [µM],EB1 pLAC [2]
"Cc1cc2ccc([C@@](C)(C#N)CCOc3ccccc3)cc2[nH]c1=O (single isomer, unassigned) [Compound 164]",631,0.316,
CCc1cc2ccc(C(C)(C#N)Cc3cccc(N)c3)cc2[nH]c1=O (centres unmarked) [Compound 15],100,3.16,
CCc1cc2ccc(C(C)(C#N)Cc3ccccc3C)cc2[nH]c1=O (centres unmarked) [Compound 105],20,0.316,
CCc1cc2ccc(C(C)(C#N)Cc3cccc(OC(F)(F)F)c3)cc2[nH]c1=O (centres unmarked) [Compound 110],126,0.1,
CCc1cc2ccc(C(C)(C#N)Cc3cccc(F)c3)cc2[nH]c1=O (centres unmarked) [Compound 112],25.1,1,
CCc1cc2ccc(C(C)(C#N)Cc3ccc(Br)cc3)cc2[nH]c1=O (centres unmarked) [Compound 118],31.6,3.16,
CCc1cc2ccc(C(C)(C#N)Cc3ccc(OC)cc3)cc2[nH]c1=O (centres unmarked) [Compound 119],31.6,3.16,
CCc1cc2ccc(C(C)(C#N)Cc3cccc(F)c3F)cc2[nH]c1=O (centres unmarked) [Compound 120],50.1,0.316,
CCc1cc2ccc(C(C)(C#N)Cc3cccc(Cl)c3Cl)cc2[nH]c1=O (centres unmarked) [Compound 121],79.4,0.316,
CCc1cc2ccc(C(C)(C#N)Cc3ccc4ccccc4c3)cc2[nH]c1=O (centres unmarked) [Compound 122],100,1,
CCc1cc2ccc(C(C)(C#N)Cc3ccc4c(c3)nnn4C)cc2[nH]c1=O (centres unmarked) [Compound 123],100,3.16,
CCc1cc2ccc(C(C)(C#N)Cc3cc(C)cc(C)c3)cc2[nH]c1=O (centres unmarked) [Compound 125],100,0.1,
CCc1cc2ccc(C(C)(C#N)Cc3cc(F)cc(C(F)(F)F)c3)cc2[nH]c1=O (centres unmarked) [Compound 127],398,1,
CCc1cc2ccc(C(C)(C#N)Cc3cccc(C)c3F)cc2[nH]c1=O (centres unmarked) [Compound 132],63.1,0.316,
CCc1cc2ccc(C(C)(C#N)Cc3c(Cl)cccc3Cl)cc2[nH]c1=O (centres unmarked) [Compound 135],50.1,1,
CCc1cc2ccc(C(C)(C#N)Cc3c(Cl)cccc3Br)cc2[nH]c1=O (centres unmarked) [Compound 136],50.1,1,
CCc1cc2ccc(C(C)(C#N)Cc3ccc(F)cc3F)cc2[nH]c1=O (centres unmarked) [Compound 137],63.1,1,
CCOc1ccccc1OCCC(C)(C#N)c1ccc2cc(CC)c(=O)[nH]c2c1 (centres unmarked) [Compound 142],158,1,
CCc1cc2ccc(C(C)(C#N)CCOc3cccc(C)c3)cc2[nH]c1=O (centres unmarked) [Compound 143],158,1,
CCc1cc2ccc(C(C)(C#N)CCOc3ccc(F)cc3)cc2[nH]c1=O (centres unmarked) [Compound 144],100,0.316,
